Results as given in publication PMC7357788, “Overlapping functions and protein-protein interactions of LRR-extensins in Arabidopsis” (PLoS Genetics, 2020).
pKd: −log10 of the molar value. Entries after “also recorded” stand apart in the source; their conditions may differ.

Columns and labels:
[1] = target: LRX1 (LRX1^ΔE-FLAG); experiment: BLITZ (biolayer interferometry) RALF1-LRX1 binding; set-up: species or system Arabidopsis thaliana; conditions: purified LRX^ΔE expressed in N. benthamiana, synthetic RALF1 peptide, association 120 s, dissociation 120 s
LRX1 (LRX1^ΔE-FLAG), sequence (O65375 27-381 limits assumed, stated change not applied): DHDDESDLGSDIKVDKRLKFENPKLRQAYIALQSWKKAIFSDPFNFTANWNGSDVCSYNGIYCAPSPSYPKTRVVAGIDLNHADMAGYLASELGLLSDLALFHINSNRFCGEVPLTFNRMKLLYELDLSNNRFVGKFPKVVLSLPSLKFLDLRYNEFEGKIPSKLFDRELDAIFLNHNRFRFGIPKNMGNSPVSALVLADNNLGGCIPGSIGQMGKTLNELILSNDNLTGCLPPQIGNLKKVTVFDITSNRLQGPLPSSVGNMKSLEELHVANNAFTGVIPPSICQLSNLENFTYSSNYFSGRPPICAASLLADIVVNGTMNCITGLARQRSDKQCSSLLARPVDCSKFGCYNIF
Experimental: (§1) The kinetics of the interaction of LRX proteins with RALF1 were tested with Biolayer Interferometry (BLITZ). The LRX^ΔE-FLAG proteins of LRX1, LRX3, LRX4, and LRX5 used for this experiment were expressed transiently in tobacco. […] For RALF1, in vitro synthesized peptide was used. […] While the LRX^ΔE-FLAG had to be soluble in order to get purified prior to application on the sensor (for details, see Materials and Methods), it cannot be completely ruled out that LRX3^ΔE-FLAG has a reduced solubility in this experiment that would provide an alternative explanation for the observed high Kd.
(§2) The BLITZ experiments were performed as previously described. The LRR^ΔE–FLAG versions of the different LRXs were expressed using the 35S promoter in N. benthamiana, presence of proteins was checked by immunoblotting, and proteins were immune-precipitated as described above. […] Protein concentration was determined by Qubit measurement (Quant-iTTM Protein Assay kit, Invitrogen). […] Different RALF synthetic peptide (PHTD peptides) concentrations (200 μM, 150 μM, 100 μM, 50 μM, 20 μM, 15 μM, 10 μM, 4 μM, 2 μM and 0.2 μM) were added to quantify the protein interaction.
(§3) Supplementary file pgen.1008847.s004.pdf: S4 Fig BLITZ output data. […] Association/dissociation or RALF1 depends on the concentration of applied RALF1, based on which the Kd is calculated. […]

[2] = test system: LRX3 (LRX3^ΔE-FLAG); experiment: BLITZ (biolayer interferometry) RALF1-LRX3 binding; set-up: species or system Arabidopsis thaliana; conditions: compared with LRX1, LRX4, and LRX5
LRX3 (LRX3^ΔE-FLAG), sequence (Q9T0K5 21-388 limits assumed, stated change not applied): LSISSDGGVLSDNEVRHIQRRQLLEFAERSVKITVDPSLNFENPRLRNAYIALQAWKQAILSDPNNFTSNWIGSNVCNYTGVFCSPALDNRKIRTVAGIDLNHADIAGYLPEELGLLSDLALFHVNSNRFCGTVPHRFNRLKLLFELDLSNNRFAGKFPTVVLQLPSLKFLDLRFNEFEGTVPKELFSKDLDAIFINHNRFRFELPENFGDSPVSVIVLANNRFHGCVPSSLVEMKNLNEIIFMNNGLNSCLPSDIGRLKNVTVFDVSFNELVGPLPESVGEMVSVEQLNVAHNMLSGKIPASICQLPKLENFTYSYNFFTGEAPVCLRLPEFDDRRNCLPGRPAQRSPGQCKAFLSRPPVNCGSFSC
Experimental: as §1, §2

[3] = target: LRX4 (LRX4^ΔE-FLAG); experiment: BLITZ (biolayer interferometry) RALF1-LRX4 binding; set-up: species or system Arabidopsis thaliana; conditions: purified LRX^ΔE expressed in N. benthamiana, synthetic RALF1 peptide, association 120 s, dissociation 120 s
LRX4 (LRX4^ΔE-FLAG), sequence (Q9LHF1 26-403 limits assumed, stated change not applied): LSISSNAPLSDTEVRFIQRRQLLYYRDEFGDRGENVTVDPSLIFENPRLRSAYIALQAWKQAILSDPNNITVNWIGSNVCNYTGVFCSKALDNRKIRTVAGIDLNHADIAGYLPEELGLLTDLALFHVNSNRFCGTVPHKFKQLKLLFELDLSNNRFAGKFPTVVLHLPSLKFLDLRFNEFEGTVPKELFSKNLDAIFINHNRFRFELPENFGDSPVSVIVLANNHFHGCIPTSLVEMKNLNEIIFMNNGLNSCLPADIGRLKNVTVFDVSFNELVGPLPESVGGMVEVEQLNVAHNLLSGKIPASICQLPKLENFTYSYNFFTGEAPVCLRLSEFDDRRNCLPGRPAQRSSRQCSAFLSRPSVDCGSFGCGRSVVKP
Experimental: as §1, §2, §3

[4] = target: LRX5 (LRX5^ΔE-FLAG); experiment: BLITZ (biolayer interferometry) RALF1-LRX5 binding; set-up: species or system Arabidopsis thaliana; conditions: purified LRX^ΔE expressed in N. benthamiana, synthetic RALF1 peptide, association 120 s, dissociation 120 s
LRX5 (LRX5^ΔE-FLAG), sequence (Q9SN46 32-405 limits assumed, stated change not applied): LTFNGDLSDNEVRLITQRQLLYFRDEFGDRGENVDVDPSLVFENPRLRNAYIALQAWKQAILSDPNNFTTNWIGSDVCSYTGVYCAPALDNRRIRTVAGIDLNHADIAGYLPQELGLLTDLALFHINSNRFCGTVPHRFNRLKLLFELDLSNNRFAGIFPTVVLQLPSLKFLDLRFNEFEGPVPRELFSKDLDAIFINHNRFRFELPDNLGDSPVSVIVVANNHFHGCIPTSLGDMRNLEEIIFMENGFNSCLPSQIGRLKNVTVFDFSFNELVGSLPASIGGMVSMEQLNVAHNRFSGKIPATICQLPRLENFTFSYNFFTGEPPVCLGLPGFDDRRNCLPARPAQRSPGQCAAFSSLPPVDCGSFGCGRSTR
Experimental: as §1, §2

[5] = test system: LRX1^ΔE; experiment: Co-IP of LRX1^ΔE-HA with RALF1-FLAG; format: binding, Arabidopsis thaliana; conditions: Co-IP and immunoblotting, transient expression in N. benthamiana
Experimental: Here, we tested binding of RALF1 to LRX1.
(§4) For pulldown and Co-IP analysis of the different constructs indicated in the experiments DNA was infiltrated into Nicotiana benthamiana leaves, and after 48 hrs, the leaves were excised and ground in liquid nitrogen as described in [62]. Two hundred mg of tissue powder was re-suspended in 500 μL extraction buffer [200 mM Tris-HCl (pH 7.5), 150 mM NaCl, 1 mM PMSF, protease inhibitor and 0.5% Triton X-100]. The suspension was incubated on ice for 30 minutes and then centrifuged at 11,000 rpm for 20 minutes at 4°C. The supernatant (200 μL) was then incubated with 10 μL anti-HA (Thermo Scientific, 88837), or anti-FLAG magnetic beads overnight at 4°C on a rotating shaker. If RALF1 peptide was added, the peptide was diluted in such way that for every sample 1μL of peptide was added to the protein extracts. After incubation, the beads were washed five times with the wash buffer (extraction buffer containing 0.05% Triton X-100) and boiled in SDS-PAGE loading buffer for 15 minutes at 75°C. The immunoprecipitates were then run on an SDS-PAGE gel and transferred to nitrocellulose membrane to perform immunoblotting using the following antibodies: anti-FLAG M2 (Sigma-Aldrich, F3165), anti-GFP (Biolegend, 902601), anti-HA-HRP 3F10 (Roche, 12 013 819 001) and anti-mouse-HRP (Sigma Aldrich, A 4416). […]

[6] = test system: LRX1; experiment: Yeast-two-hybrid RALF1-LRX1; format: binding, Arabidopsis thaliana; conditions: Y2H, yeast strain PJ69-4A, growth on -Trp, Leu, His, Ade drop-out medium
Text: (§5) The BD-LRX4 and AD-FER^ECD constructs for the Yeast-two-hybrid experiment were cloned as previously described, where NtermFER equals AD-FER^ECD and LRR4 equals BD-LRX4. For the BD-LRX1/2/3/5 constructs, the coding sequence of the LRR domain of the LRXs was amplified using primers (S3 Table) to introduce a BamHI and a XhoI site at the 5’ and 3’ end of the PCR fragments, respectively. These were cloned into pJET1.2 (Thermo Scientific) and correct clones were cut with BamHI and XhoI and ligated into pGBKT7 cut with BamHI and SalI. The AD-RALF1 construct was cloned into pJET1.2 (Thermo Scientific) by amplification of the coding sequence with the primers y2h_RALF1_F and y2h_RALF1_R. A correct clone was cut with EcoRI and XmaI and ligated into pGADT7 cut with EcoRI and XmaI.
(§6) Transformation of the yeast strain PJ69-4A [63] was done following standard procedures and quadruple drop-out medium lacking Leu, Trp, His, and Ade were used to screen for positive interactions after 4 days incubation at 30°C. Three different colonies containing both vectors were mixed and plated in triplicates on quadruple drop-out medium.
(§7) Supplementary file pgen.1008847.s002.pdf: S2 Fig Interaction of LRX1 and RALF1 in yeast. The yeast strain PJ69-4A was transformed with pGADT7-RALF1 and pGBKT7-LRR1 or pGBKT7-LRR4, and with either of the constructs with empty plasmids for the negative controls. […]

[7] = test system: LRX4; experiment: Yeast-two-hybrid RALF1-LRX4; format: binding, Arabidopsis thaliana; conditions: Y2H, yeast strain PJ69-4A, growth on -Trp, Leu, His, Ade drop-out medium
Text: as §5, §6, §7

[8] = test system: LRX1^ΔE-FER^ECD interaction; experiment: Co-IP: effect of added RALF1 on LRX1^ΔE-FER^ECD interaction; format: binding, Arabidopsis thaliana; conditions: synthetic RALF1 peptide 50, 100, 200, 1000 nM added to extracts
Text: In a next step, the dynamics of LRX-RALF1-FER interaction was investigated with a focus on LRX1. To this end, extracts used to show Co-IP of LRX1^ΔE and FER^ECD were supplemented with increasing concentrations of RALF1 peptide.
as §4, with “75°C.” for “75°C. The immunoprecipitates were then run on an SDS-PAGE gel and transferred to nitrocellulose membrane to perform immunoblotting using the following antibodies: anti-FLAG M2 (Sigma-Aldrich, F3165), anti-GFP (Biolegend, 902601), anti-HA-HRP 3F10 (Roche, 12 013 819 001) and anti-mouse-HRP (Sigma Aldrich, A 4416).”

[9] = test system: Arabidopsis seedlings; experiment: Root growth inhibition assay; format: in vivo, Arabidopsis thaliana; conditions: five days in liquid medium, 1 μM RALF1, student T-test, n = 6, p<0.001 vs control
Text: Supplementary file pgen.1008847.s003.pdf: S3 Fig Synthetic RALF1 peptide activity. […] Error bars represent standard error of the mean. (PDF) Click here for additional data file.

[10] = test system: LRX3, LRX4, and LRX5; conditions: vegetative tissues; ref [40],[41]; cited from earlier work
Text: LRX proteins were recently identified as high-affinity binding sites for RALF peptides, with the binding spectrum differing among the LRXs. […] Whether and how the binding of RALFs and FER to LRXs influences the interaction of these proteins remains to be investigated. It is also unknown to what extent the different LRXs are functionally similar and whether they share FER as a common interaction ...

[11] = test system: LRX4; conditions: ref [15],[41]; cited from earlier work
[12] = test system: FER; conditions: ref [15],[41]; cited from earlier work

RALF1: in vitro synthesized RALF1 peptide hormone (PHTD peptides); gene At1G02900; expressed as AD-RALF1 in yeast-two-hybrid (ATTKYISYQSLKRNSVPCSRRGASYYNCQNGAQANPYSRGCSKIARCRS; UniProt Q9SRY3 72-120, looked up)
pKd [1]: 8.35 | affinity of LRX3 for RALF1, in words [2]: much lower affinity | pKd [3]: 8.26 | pKd [4]: 8.46 | interaction with LRX1^ΔE [5]: shows binding to RALF1 | interaction with LRX1 [6]: yeast cells grew effectively in the presence of the two proteins; also recorded: indicates interaction of the LRX proteins with RALF1 | interaction with LRX4 [7]: indicates interaction of the LRX proteins with RALF1 | effect on LRX1^ΔE-FER^ECD interaction [8]: does not influence the interaction of LRX1^ΔE with FER^ECD; also recorded: did not affect the interaction between LRX1^ΔE and FER^ECD | root growth inhibition [9]: effectively inhibited root growth of Arabidopsis seedlings; also recorded: significantly inhibited root growth | binding to LRX3, LRX4, and LRX5 [10]: reported to bind | binding to LRX4 [11]: has been shown to bind RALF1 | binding to FER [12]: also interacts with FER
